Assay results taken from patent publication US20100120700A1, “METHODS AND COMPOSITIONS FOR TREATING CERVICAL CANCER” (priority 2000, published 2010).
Several values for one entry are separate records, joined by “and”; a condition that tells them apart may be missing. Equal entries are not always repeated.

Columns and labels:
Experiment in all cases: G assay PDZ-PL binding
[1] = molecular target: T1, KIAA0147 domain 3 (Homo sapiens, UniProt Q14160); conditions: A450 nm, peptide 10 uM, protein 5
T1 construct: made in house; host or cells: E. coli (DH5alpha, BL21 or JM109)
Protocol: (§1) (1) A PDZ-domain polypeptide is bound to a surface, e.g. a protein binding surface. In a preferred embodiment, a GST/PDZ fusion protein containing one or more PDZ domains is bound to a polystyrene 96-well plate. […] In one embodiment, the GST/PDZ fusion protein is bound via an anti-GST antibody that is coated onto the 96-well plate. Adequate binding to the plate can be achieved when: • a. 100 uL per well of 5 ug/mL goat anti-GST polyclonal antibody (Pierce) in PBS is added to a polystyrene 96-well plate (e.g., Num Polysorb) at 4° C. for 12 hours. • b. The plate is blocked by addition of 200 uL per well of PBS/BSA for 2 hours at 4° C. • c. The plate is washed 3 times with PBS. • d. 50 uL per well of 5 ug/mL GST/PDZ fusion protein) or, as a negative control, GST polypeptide alone (i.e. not a fusion protein) in PBS/BSA is added to the plate for 2 hours at 4° C. • e. The plate is again washed 3 times with PBS. […]
(§2) (3) The binding of the biotinylated peptide to the GST/PDZ fusion protein surface can be detected using a variety of methods and detectors known to one of skill in the art. In one embodiment, 100 uL per well of 0.5 ug/mL streptavidin-horse radish peroxidase (HRP) conjugate dissolved in BSA/PBS is added and allowed to react for 20 minutes at 4° C. The plate is then washed 5 times with 50 mM Tris pH 8.0 containing 0.2% Tween 20, and developed by addition of 100 uL per well of HRP-substrate solution (TMB, Dako) for 20 minutes at room temperature (RT). The reaction of the HRP and its substrate is terminated by addition of 100 uL per well of 1M sulfuric acid, and the absorbance of each well of the plate is read at 450 nm.
(§3) (4) Specific binding of a PL peptide and a PDZ domain polypeptide is determined by comparing the signal from the well(s) in which the PL peptide and PDZ domain polypeptide are combined, with the background signal(s). The background signal is the signal found in the negative control(s). Typically a specific or selective reaction will be at least twice background signal, more typically more than 5 times background, and most typically 10 or more times the background signal. In addition, a statistically significant reaction will involve multiple measurements of the reaction with the signal and the background differing by at least two standard errors, more typically four standard errors, and most typically six or more standard errors. Correspondingly, a statistical test (e.g. a T-test) comparing repeated measurements of the signal with-repeated measurements of the background will result in a p-value<0.05, more typically a p-value<0.01, and most typically a p-value<0.001 or less. As noted, in an embodiment of the “G” assay, the signal from binding of a given PL peptide to immobilized (surface bound) GST polypeptide alone is one suitable negative control (sometimes referred to as “B 1”). Because all measurement are done in multiples (i.e. at least duplicate) the arithmetic mean (or, equivalently, average.) of several measurements is used in determining the binding, and the standard error of the mean is used in determining the probable error in the measurement of the binding. The standard error of the mean of N measurements equals the square root of the following: the sum of the squares of the difference between each measurement and the mean, divided by the product of (N) and (N−1). Thus, in one embodiment, specific binding of the PDZ protein to the platebound peptide is determined by comparing the mean signal (“mean S”) and standard error of the signal (“SE”) for a particular PL-PDZ combination with the mean B1.
(§4) For convenience, the assay conditions described in this section are referred to as the “G’ assay” and the “G” assay,” with the specific conditions described in the preceding section on G assays being referred to as the “G° assay.” The “G′ assay” is identical to the “G° assay” except at step (2) the peptide concentration is 10 uM instead of 20 uM. […]

[2] = molecular target: T2, SITAC-18 domain 1 (Homo sapiens, UniProt Q9H190); conditions: peptide 10 uM, protein 5
T2 construct: made in house; host or cells: E. coli (DH5alpha or BL-21)
Protocol: as §1, §2, §3, §4

[3] = molecular target: T3, HTRA 3 domain 1 (Homo sapiens, UniProt P83110); conditions: peptide 10 uM, protein 5
T3 construct: made in house; host or cells: E. coli (DH5alpha or BL-21)
Protocol: as §1, §2, §3, §4

[4] = molecular target: T4, ERBIN domain 1 (Homo sapiens, UniProt Q96RT1); conditions: peptide 10 uM, protein 5
T4 construct: made in house; host or cells: E. coli (DH5alpha, BL21 or JM109)
Protocol: as §1, §2, §3, §4

[5] = molecular target: T5, TIAM 2 domain 1 (Homo sapiens, UniProt Q8IVF5); conditions: peptide 10 uM, protein 5
T5 construct: made in house; host or cells: E. coli (DH5alpha, BL21 or JM109)
Protocol: as §1, §2, §3, §4

[6] = molecular target: T6, LIM Mystique domain 1 (Homo sapiens, UniProt Q96JY6); conditions: peptide 10 uM, protein 5
T6 construct: made in house; host or cells: E. coli (DH5alpha, BL21 or JM109), vector pGEX-3X
Protocol: as §1, §2, §3, §4

[7] = molecular target: T7, LIM-RIL domain 1 (Homo sapiens, UniProt P50479, A39S/DEL20-20); conditions: peptide 10 uM, protein 5
T7 construct: made in house; host or cells: E. coli (DH5alpha or BL-21)
Protocol: as §1, §2, §3, §4

[8] = molecular target: T8, EBP50 #287.1 domain 2 (Homo sapiens, UniProt O14745); conditions: peptide 10 uM, protein 5
T8 construct: made in house; host or cells: E. coli (DH5alpha, BL21 or JM109)
Protocol: as §1, §2, §3, §4

[9] = molecular target: T9, MUPP1 domain 13 (Homo sapiens, UniProt O75970); conditions: peptide 10 uM, protein 5
T9 construct: made in house; host or cells: E. coli (DH5alpha or BL-21)
Protocol: as §1, §2, §3, §4

[10] = molecular target: T10, MAGI 1 domain 4 (Homo sapiens, UniProt Q96QZ7); conditions: peptide 10 uM, protein 5
T10 construct: made in house; host or cells: E. coli (DH5alpha, BL21 or JM109)
Protocol: as §1, §2, §3, §4

[11] = molecular target: T11, DLG2 domain 1 (Homo sapiens, UniProt Q15700); conditions: peptide 10 uM, protein 5
T11 construct: made in house; host or cells: E. coli (DH5alpha, BL21 or JM109), vector pGEX-3X
Protocol: as §1, §2, §3, §4

[12] = molecular target: T12, MUPP1 domain 7 (Homo sapiens, UniProt O75970); conditions: peptide 10 uM, protein 5
T12 construct: made in house; host or cells: E. coli (DH5alpha, BL21 or JM109)
Protocol: as §1, §2, §3, §4

[13] = molecular target: T13, PTPL1 domain 2 (Homo sapiens, UniProt Q12923); conditions: peptide 10 uM, protein 5
T13 construct: made in house; host or cells: E. coli (DH5alpha, BL21 or JM109)
Protocol: as §1, §2, §3, §4

[14] = molecular target: T14, RGS12 domain 1 (Homo sapiens, UniProt O14924); conditions: peptide 10 uM, protein 5
T14 construct: made in house; host or cells: E. coli (DH5alpha, BL21 or JM109), vector pGEX-3X
Protocol: as §1, §2, §3, §4

T9 sequence (O75970 1980-2070): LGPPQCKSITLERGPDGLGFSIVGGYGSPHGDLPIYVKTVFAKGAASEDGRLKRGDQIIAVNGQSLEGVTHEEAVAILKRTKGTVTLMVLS
T10 sequence (Q96QZ7 with tags, fused parts or gaps): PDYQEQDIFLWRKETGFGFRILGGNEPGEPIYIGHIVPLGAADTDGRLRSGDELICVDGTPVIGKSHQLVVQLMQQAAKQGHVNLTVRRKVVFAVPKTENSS
T4 sequence (Q96RT1 1313-1412): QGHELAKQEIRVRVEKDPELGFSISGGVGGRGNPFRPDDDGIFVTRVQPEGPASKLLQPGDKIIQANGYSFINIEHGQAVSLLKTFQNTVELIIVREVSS
T14 sequence (O14924 with tags, fused parts or gaps): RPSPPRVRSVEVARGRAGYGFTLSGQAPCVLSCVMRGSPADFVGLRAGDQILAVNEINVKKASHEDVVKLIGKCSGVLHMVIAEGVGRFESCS
T1 sequence (Q14160 with tags, fused parts or gaps): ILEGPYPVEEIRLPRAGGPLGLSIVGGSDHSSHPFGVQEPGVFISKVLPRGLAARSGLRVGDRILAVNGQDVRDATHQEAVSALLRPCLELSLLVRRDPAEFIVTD
T13 sequence (Q12923 1364-1458): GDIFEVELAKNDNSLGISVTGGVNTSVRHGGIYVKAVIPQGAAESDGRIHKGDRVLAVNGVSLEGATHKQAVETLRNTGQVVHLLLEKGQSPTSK
T8 sequence (O14745 with tags, fused parts or gaps): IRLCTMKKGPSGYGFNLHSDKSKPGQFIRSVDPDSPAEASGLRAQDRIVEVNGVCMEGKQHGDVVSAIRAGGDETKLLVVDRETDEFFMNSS
T2 sequence (Q9H190 104-195): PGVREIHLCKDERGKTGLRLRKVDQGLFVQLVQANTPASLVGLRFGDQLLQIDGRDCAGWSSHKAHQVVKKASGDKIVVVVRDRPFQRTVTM
T3 sequence (P83110 with tags, fused parts or gaps): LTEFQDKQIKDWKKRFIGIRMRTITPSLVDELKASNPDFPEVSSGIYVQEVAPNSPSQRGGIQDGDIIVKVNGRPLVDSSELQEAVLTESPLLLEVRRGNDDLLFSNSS
T12 sequence (O75970 with tags, fused parts or gaps): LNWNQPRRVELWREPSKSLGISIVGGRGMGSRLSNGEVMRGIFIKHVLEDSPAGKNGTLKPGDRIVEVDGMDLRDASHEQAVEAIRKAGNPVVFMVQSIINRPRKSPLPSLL
T6 sequence (Q96JY6 1-91): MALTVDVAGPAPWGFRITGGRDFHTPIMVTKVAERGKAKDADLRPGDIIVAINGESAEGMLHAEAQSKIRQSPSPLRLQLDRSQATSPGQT
T5 sequence (Q8IVF5 885-981): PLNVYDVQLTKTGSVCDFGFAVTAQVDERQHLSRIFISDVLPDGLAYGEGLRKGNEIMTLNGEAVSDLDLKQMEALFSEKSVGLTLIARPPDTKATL
T7 sequence (P50479 with tags, fused parts or gaps DEL20-20/A39S): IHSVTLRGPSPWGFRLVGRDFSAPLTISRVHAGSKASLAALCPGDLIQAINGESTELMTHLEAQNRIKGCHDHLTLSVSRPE

Substance: 20 mer peptide corresponding to the C-terminus of HPV16 E6 (PDZ ligand), biotinylated in binding assays; ends SSRTRRETQL (SEQ ID NO: 13) [HPV E6 #16]
- Ave OD [1]: 2.0785 and 1.072
- Ave OD ([2]; A450 nm): 0.3975
- OD S/N ([2]; vs GST only well): 1.63
- Ave OD ([3]; A450 nm): 0.4135
- OD S/N ([3]; vs GST only well): 1.34
- Ave OD ([4]; A450 nm): 0.36 and 0.342
- OD S/N ([4]; vs GST only well): 1.82 and 1.30
- Ave OD ([5]; A450 nm): 0.356
- OD S/N ([5]; vs GST only well): 2.05
- Ave OD ([6]; A450 nm): 0.5955
- OD S/N ([6]; vs GST only well): 2.84
- Ave OD ([7]; A450 nm): 0.449
- OD S/N ([7]; vs GST only well): 1.60
- Ave OD ([8]; A450 nm): 0.499
- OD S/N ([8]; vs GST only well): 2.57
- Ave OD ([9]; A450 nm): 0.4355 and 0.4115
- OD S/N ([9]; vs GST only well): 1.56 and 1.75
- Ave OD ([10]; A450 nm): 0.395 and 0.496
- OD S/N ([10]; vs GST only well): 1.20 and 1.58
- Ave OD ([11]; A450 nm): 0.793
- OD S/N ([11]; vs GST only well): 3.59
- Ave OD ([12]; A450 nm): 0.498
- OD S/N ([12]; vs GST only well): 1.61
- Ave OD ([13]; A450 nm): 0.348
- OD S/N ([13]; vs GST only well): 1.80
- Ave OD ([14]; A450 nm): 0.4295 and 0.661
- OD S/N ([14]; vs GST only well): 3.96 and 4.64
